According to ChEMBL document CHEMBL4808181, “Hydrophobic Pocket Occupation Design of Difluoro-Biphenyl-Diarylpyrimidines as Non-Nucleoside HIV-1 Reverse Transcriptase Inhibitors: from N-Alkylation to Methyl Hopping on the Pyrimidine Ring” (J Med Chem, 2021):

Legend:
[1] = Acute toxicity in pregnant mouse assessed as death at 2 g/kg, ig; settings: in vivo, po, 2000 mg/kg
[2] = Acute toxicity in healthy female mouse assessed as increase in body weight at 2 g/kg, ig; settings: in vivo, po, 2000 mg/kg
[3] = Acute toxicity in healthy mouse assessed as death at 2 g/kg, ig; settings: in vivo, po, 2000 mg/kg
[4] = Metabolic stability in human liver microsomes assessed as intrinsic clearance per mg protein; type: ADME, Microsome; settings: read-out: CLH
[5] = Metabolic stability in mouse liver microsomes assessed as intrinsic clearance per mg protein; type: ADME, Microsome
[6] = Metabolic stability in rat liver microsomes assessed as intrinsic clearance per mg protein; type: ADME, Microsome
[7] = Metabolic stability in mouse liver microsomes assessed as half life; type: ADME, Microsome
[8] = Metabolic stability in rat liver microsomes assessed as half life; type: ADME, Microsome
[9] = Toxicity in pregnant mouse assessed as lung damage at 2 g/kg, ig monitored for 2 weeks by HE staining based assay; type: tissue-based; settings: in vivo, po, 2000 mg/kg, 336 h
[10] = Toxicity in pregnant mouse assessed as kidney damage at 2 g/kg, ig monitored for 2 weeks by HE staining based assay; type: tissue-based; settings: in vivo, po, 2000 mg/kg, 336 h
[11] = Toxicity in pregnant mouse assessed as spleen damage at 2 g/kg, ig monitored for 2 weeks by HE staining based assay; type: tissue-based; settings: in vivo, po, 2000 mg/kg, 336 h
[12] = Toxicity in pregnant mouse assessed as liver damage at 2 g/kg, ig monitored for 2 weeks by HE staining based assay; type: tissue-based; settings: in vivo, po, 2000 mg/kg, 336 h
[13] = Toxicity in pregnant mouse assessed as brain damage at 2 g/kg, ig monitored for 2 weeks by HE staining based assay; type: tissue-based; settings: in vivo, po, 2000 mg/kg, 336 h
[14] = Toxicity in pregnant mouse assessed as heart damage at 2 g/kg, ig monitored for 2 weeks by HE staining based assay; type: tissue-based; settings: in vivo, po, 2000 mg/kg, 336 h
[15] = Toxicity in healthy female mouse assessed as kidney damage at 2 g/kg, ig monitored for 2 weeks by HE staining based assay; type: tissue-based; settings: in vivo, po, 2000 mg/kg, 336 h
[16] = Toxicity in healthy female mouse assessed as spleen damage at 2 g/kg, ig monitored for 2 weeks by HE staining based assay; type: tissue-based; settings: in vivo, po, 2000 mg/kg, 336 h
[17] = Toxicity in healthy female mouse assessed as lung damage at 2 g/kg, ig monitored for 2 weeks by HE staining based assay; type: tissue-based; settings: in vivo, po, 2000 mg/kg, 336 h
[18] = Toxicity in healthy female mouse assessed as liver damage at 2 g/kg, ig monitored for 2 weeks by HE staining based assay; type: tissue-based; settings: in vivo, po, 2000 mg/kg, 336 h
[19] = Toxicity in healthy female mouse assessed as brain damage at 2 g/kg, ig monitored for 2 weeks by HE staining based assay; type: tissue-based; settings: in vivo, po, 2000 mg/kg, 336 h
[20] = Toxicity in healthy female mouse assessed as heart damage at 2 g/kg, ig monitored for 2 weeks by HE staining based assay; type: tissue-based; settings: in vivo, po, 2000 mg/kg, 336 h
[21] = test system: Human immunodeficiency virus type 1 reverse transcriptase (Human immunodeficiency virus 1), Q72547 [K103N]; test: Potency index, ratio of EFV EC50 to test compound EC50 for inhibition of HIV-1 p66/p51 reverse transcriptase K103N mutant
[22] = test system: Human immunodeficiency virus type 1 reverse transcriptase (Human immunodeficiency virus 1), Q72547 [K103N]; test: Potency index, ratio of NVP EC50 to test compound EC50 for inhibition of HIV-1 p66/p51 reverse transcriptase K103N mutant
[23] = Cmax in Wistar rat at 5 mg/kg, po; type: ADME, organism-based; parameters: route oral, dose 5 mg/kg; settings: in vivo
[24] = Tmax in Wistar rat at 5 mg/kg, po; type: ADME, organism-based; settings: in vivo
[25] = Half life in Wistar rat at 5 mg/kg, po; type: ADME, organism-based; settings: in vivo
[26] = Half life in Wistar rat at 1 mg/kg, iv; type: ADME, organism-based; settings: in vivo
[27] = MRTinfinity in Wistar rat at 1 mg/kg, iv; type: ADME, organism-based; settings: in vivo
[28] = AUCinfinity in Wistar rat at 1 mg/kg, iv; type: ADME, organism-based; parameters: route intravenous, time infinity, dose 1 mg/kg; settings: in vivo
[29] = MRTinfinity in Wistar rat at 5 mg/kg, po; type: ADME, organism-based; settings: in vivo
[30] = AUC in Wistar rat at 1 mg/kg, iv; type: ADME, organism-based; parameters: dose 1 mg/kg; settings: in vivo
[31] = AUCinfinity in Wistar rat at 5 mg/kg, po; type: ADME, organism-based; parameters: route oral, time infinity, dose 5 mg/kg; settings: in vivo
[32] = AUC in Wistar rat at 5 mg/kg, po; type: ADME, organism-based; parameters: dose 5 mg/kg; settings: in vivo
[33] = Acute toxicity in pregnant mouse assessed as abortion at 2 g/kg, ig; settings: in vivo, po, 2000 mg/kg
[34] = Acute toxicity in pregnant mouse assessed as stillborn fetus at 2 g/kg, ig; settings: in vivo, po, 2000 mg/kg
[35] = Acute toxicity in pregnant mouse assessed as offspring survival rate at 2 g/kg, ig; settings: in vivo, po, 2000 mg/kg
[36] = Acute toxicity in pregnant mouse assessed as behavioral abnormalities at 2 g/kg, ig measured for 2 weeks; settings: in vivo, po, 2000 mg/kg, 336 h
[37] = Acute toxicity in healthy female mouse assessed as behavioral abnormalities at 2 g/kg, ig measured for 2 weeks; settings: in vivo, po, 2000 mg/kg, 336 h
[38] = Acute toxicity in pregnant mouse assessed as increase in body weight at 2 g/kg, ig; settings: in vivo, po, 2000 mg/kg
[39] = test system: Human immunodeficiency virus 1; test: Antiviral activity against HIV-1 infected in human MT-4 cells assessed as reduction in virus-induced cytopathic effect incubated for 5 days by MTT assay; type: functional, organism-based; settings: Human immunodeficiency virus 1, MT4, 120 h
[40] = Cytotoxicity against in human MT-4 cells after 5 days by MTT assay; type: cell-based, MT4; settings: time 5 day
[41] = Selectivity index, ratio of CC50 for human MT-4 cells to EC50 for HIV-1 infected in MT-4 cells; type: toxicity, cell-based; settings: read-out: Ratio CC50/EC50
[42] = molecular target: Human immunodeficiency virus type 1 reverse transcriptase (Human immunodeficiency virus 1, UniProt Q72547, L100I); test: Inhibition of HIV-1 p66/p51 reverse transcriptase L100I mutant incubated for 40 mins by picogreen dye-based spectrofluorometric analysis
[43] = molecular target: Human immunodeficiency virus type 1 reverse transcriptase (Human immunodeficiency virus 1, UniProt Q72547, K103N); test: Inhibition of HIV-1 p66/p51 reverse transcriptase K103N mutant incubated for 40 mins by picogreen dye-based spectrofluorometric analysis
[44] = molecular target: Human immunodeficiency virus type 1 reverse transcriptase (Human immunodeficiency virus 1, UniProt Q72547, Y181C); test: Inhibition of HIV-1 p66/p51 reverse transcriptase Y181C mutant incubated for 40 mins by picogreen dye-based spectrofluorometric analysis
[45] = Inhibition of HIV-1 p66/p51 reverse transcriptase E138K mutant incubated for 40 mins by picogreen dye-based spectrofluorometric analysis; parameters: species or system Human immunodeficiency virus 1
[46] = molecular target: Human immunodeficiency virus type 1 reverse transcriptase (Human immunodeficiency virus 1, UniProt Q72547); test: Inhibition of recombinant wild type p66/p51 HIV1 reverse transcriptase incubated for 40 mins by picogreen dye-based spectrofluorometric analysis
[47] = Selectivity index, ratio of CC50 for cytotoxicity against human MT-4 cells to EC50 for inhibition of HIV-1 p66/51 reverse transcriptase L100I mutant; type: toxicity, cell-based; settings: read-out: Ratio CC50/EC50
[48] = Selectivity index, ratio of CC50 for cytotoxicity against human MT-4 cells to EC50 for inhibition of HIV-1 p66/51 reverse transcriptase K103N mutant; type: toxicity, cell-based; settings: read-out: Ratio CC50/EC50
[49] = Selectivity index, ratio of CC50 for cytotoxicity against human MT-4 cells to EC50 for inhibition of HIV-1 p66/51 reverse transcriptase Y181C mutant; type: toxicity, cell-based; settings: read-out: Ratio CC50/EC50
[50] = Selectivity index, ratio of CC50 for cytotoxicity against human MT-4 cells to EC50 for inhibition of HIV-1 p66/51 reverse transcriptase E138K mutant; type: toxicity, cell-based; settings: read-out: Ratio CC50/EC50
[51] = Metabolic stability in rat liver microsomes; type: ADME, Microsome
[52] = Metabolic stability in human liver microsomes; type: ADME, Microsome
[53] = Metabolic stability in mouse liver microsomes; type: ADME, Microsome

In the case of `Cc1cnc(Nc2ccc(C#N)cc2)nc1Nc1c(F)cc(-c2ccc(C#N)cc2)cc1F`, the Activity [1] is reported as “Non-Toxic”, the Activity [2] is reported as “Toxic” and the Activity [3] is reported as “Non-Toxic”. The microsomal CLint [4] was 5 µL/min/mg, the CLH [5] was 30.1 µL/min and the CLH [6] was 28.4 µL/min. For the same compound, the t1/2 [7] was 46.1 min, the t1/2 [8] was 48.9 min and the Activity [9] was “Non-Toxic”. For the same compound, the Activity [10] was “Non-Toxic”, the Activity [11] was “Non-Toxic” and the Activity [12] was “Non-Toxic”. The Activity [13] was “Non-Toxic”, the Activity [14] was “Non-Toxic” and the Activity [15] was “Non-Toxic”. For the same compound, the Activity [16] was “Non-Toxic”, the Activity [17] was “Non-Toxic” and the Activity [18] was “Non-Toxic”. For the same compound, the Activity [19] was “Non-Toxic”, the Activity [20] was “Non-Toxic” and the Ratio EC50 [21] was 17. The Ratio EC50 [22] was 17, the Cmax [23] was 38.4 ng/mL and the Tmax [24] was 40.2 min. It also gave a half-life [25] of 128 min, a half-life [26] of 70.8 min and an MRT inf [27] of 51.6 min. For the same compound, the AUC(0-inf) [28] was 1090 ng·h/mL, the MRT inf [29] was 3.5 h and the AUC [30] was 1080 ng·h/mL. For the same compound, the AUC(0-inf) [31] was 130 ng·h/mL, the AUC [32] was 115 ng·h/mL and the Activity [33] was “Non-Toxic”. For the same compound, the Activity [34] was “Non-Toxic”, the Activity [35] was “Non-Toxic” and the Activity [36] was “Non-Toxic”. The Activity [37] was “Non-Toxic”, the Activity [38] was “Toxic” and the EC50 [39] was 1 nM. For the same compound, the CC50 at 120 h [40] was over 285 µM, the selectivity ratio [41] was over 208000 and the EC50 [42] was 16.3 nM. For the same compound, the EC50 [43] was 5.4 nM, the EC50 [44] was 11.2 nM and the EC50 [45] was 8.3 nM. For the same compound, the IC50 [46] was 13 nM, the selectivity ratio [47] was over 17500 and the selectivity ratio [48] was over 53200. For the same compound, the selectivity ratio [49] was over 25500, the selectivity ratio [50] was over 34200 and the k el [51] was 0.000237 s⁻¹. It also gave a k el [52] of 8.33e-05 s⁻¹ and a k el [53] of 0.00025 s⁻¹.
